According to PubChem BioAssay (NCI):
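Values below derive from 48-hour exposures of cells grown in 96-well plates, with endpoints linearly interpolated between the two concentrations bracketing the appropriate inhibition level. TGI: concentration producing complete growth inhibition.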

How the values were obtained:
Assay in all cases: inhibition of tumour cell growth, NCI panel, 48 h
786-0 renal = test system: 786-0 renal
A498 renal = test system: A498 renal
A549 NSCLC = test system: A549 NSCLC
ACHN renal = test system: ACHN renal
BT-549 breast = test system: BT-549 breast
CAKI-1 renal = test system: CAKI-1 renal
CCRF-CEM leukemia = test system: CCRF-CEM leukemia
COLO 205 colon = test system: COLO 205 colon
DU-145 prostate = test system: DU-145 prostate
EKVX NSCLC = test system: EKVX NSCLC
HCC-2998 colon = test system: HCC-2998 colon
HCT-116 colon = test system: HCT-116 colon
HCT-15 colon = test system: HCT-15 colon
HL-60(TB) leukemia = test system: HL-60(TB) leukemia
HOP-62 NSCLC = test system: HOP-62 NSCLC
HOP-92 NSCLC = test system: HOP-92 NSCLC
HS 578T breast = test system: HS 578T breast
HT29 colon = test system: HT29 colon
IGROV1 ovarian = test system: IGROV1 ovarian
KM12 colon = test system: KM12 colon
M14 melanoma = test system: M14 melanoma
MALME-3M melanoma = test system: MALME-3M melanoma
MCF7 breast = test system: MCF7 breast
MDA-MB-435 = test system: MDA-MB-435
MDA-N = test system: MDA-N
MOLT-4 leukemia = test system: MOLT-4 leukemia
NCI-H23 lung = test system: NCI-H23 lung
NCI-H460 lung = test system: NCI-H460 lung
NCI-H522 lung = test system: NCI-H522 lung
OVCAR-3 ovarian = test system: OVCAR-3 ovarian
OVCAR-4 ovarian = test system: OVCAR-4 ovarian
OVCAR-5 ovarian = test system: OVCAR-5 ovarian
OVCAR-8 ovarian = test system: OVCAR-8 ovarian
PC-3 prostate = test system: PC-3 prostate
RPMI-8226 leukemia = test system: RPMI-8226 leukemia
RXF 393 renal = test system: RXF 393 renal
SF-268 CNS = test system: SF-268 CNS
SF-295 CNS = test system: SF-295 CNS
SF-539 CNS = test system: SF-539 CNS
SK-MEL-28 melanoma = test system: SK-MEL-28 melanoma
SK-MEL-5 melanoma = test system: SK-MEL-5 melanoma
SK-OV-3 ovarian = test system: SK-OV-3 ovarian
SN12C renal = test system: SN12C renal
SNB-19 CNS = test system: SNB-19 CNS
SNB-75 CNS = test system: SNB-75 CNS
SR leukemia = test system: SR leukemia
SW-620 colon = test system: SW-620 colon
TK-10 renal = test system: TK-10 renal
U251 CNS = test system: U251 CNS
UACC-257 melanoma = test system: UACC-257 melanoma
UACC-62 melanoma = test system: UACC-62 melanoma
UO-31 renal = test system: UO-31 renal

Measured: TGI

O=c1ccc(-c2ccc(-n3ccnc3)cc2)nn1CCO
> 100 µM: all assays above
